{"source": "patent US8476035B2", "about": "“Agent that modulates physiological condition of pests, involved in insect choline acetyltransferase activity” (Sumitomo Chemical Company, Limited, priority 2007, dated 2013)", "key": {"[1]": {"biological_target": "cotton aphid choline acetyltransferase (Aphis gossypii, UniProt A0A9P0JF82)", "sequence (A0A9P0JF82 entry or part of it)": "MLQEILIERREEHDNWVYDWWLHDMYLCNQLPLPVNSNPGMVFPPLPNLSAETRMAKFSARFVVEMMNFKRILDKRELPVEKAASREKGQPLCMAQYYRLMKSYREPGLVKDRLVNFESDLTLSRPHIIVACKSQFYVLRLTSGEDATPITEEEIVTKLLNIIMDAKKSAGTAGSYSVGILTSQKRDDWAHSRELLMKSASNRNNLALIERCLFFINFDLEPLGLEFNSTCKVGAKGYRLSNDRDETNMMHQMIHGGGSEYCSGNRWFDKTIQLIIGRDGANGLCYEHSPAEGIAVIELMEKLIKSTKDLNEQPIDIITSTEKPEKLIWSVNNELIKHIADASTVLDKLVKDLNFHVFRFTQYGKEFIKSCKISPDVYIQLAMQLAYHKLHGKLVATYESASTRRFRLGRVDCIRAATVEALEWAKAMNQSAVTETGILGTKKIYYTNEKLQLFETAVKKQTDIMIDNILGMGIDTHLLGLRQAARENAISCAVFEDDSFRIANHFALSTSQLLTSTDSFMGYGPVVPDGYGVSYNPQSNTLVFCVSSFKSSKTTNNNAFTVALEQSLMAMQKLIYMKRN", "assay": "Inhibition of cotton aphid choline acetyltransferase activity (DTNB colorimetric in vitro assay)", "format": "biochemical", "conditions": "for inhibition at 10 µM: test compound in DMSO at final concentration 10 μM, relative to DMSO control, read-out: Activity of inhibiting choline acetyltransferase activity (inhibition degree (%) at 10 μM addition)", "experimental": "Selection of a compound which modulates a choline acetyltransferase activity was performed in a system for measuring and evaluating the choline acetyltransferase activity, the activity being modulated by adding a test compound to an in vitro reaction system using the cotton aphid choline acetyltransferase prepared in Example 7.\nAs for a measurement of the cotton aphid choline acetyltransferase activity, after the enzymatic reaction of choline acetyltransferase using acetyl-CoA and choline as substrates, free CoA formed by choline acetyltransferase reaction was measured using 5,5′-dithio-bis(2-nitrobenzoic acid) (DTNB) reagent. DTNB reacts with free thiol groups in solution to produce 5-thio-2-nitrobenzoic acid (TNB). TNB is yellow and has absorption maximum at 412 nm. The produced TNB was measured […] to calculate choline acetyltransferase activity.\nFor measuring the activity, the activity of the aphid choline acetyltransferase was measured when a test compound dissolved in DMSO was contained to a final concentration of 10 μM. In addition, the activity of the aphid choline acetyltransferase was measured when DMSO was contained in place of a test compound. Then, a ratio (%) of a measured value of the activity of the aphid choline acetyltransferase when a test compound dissolved in DMSO was contained, relative to a measured value of the activity of aphid choline acetyltransferase when DMSO was contained in place of the test compound was calculated, and a value obtained by subtracting the calculated value from 100% was adopted as an inhibition degree (%). The results in each test compound are shown in Table 4 in Example 9 together with results of Example 9.\nThe activity of aphid choline acetyltransferase was measured when a test compound dissolved in DMSO was contained to a final concentration of each concentration of 100 μM, 30 μM, 10 μM, 3 μM, 1 μM, 0.3 μM, 0.1 μM or 0.03 μM. IC50 (μM) was calculated from the result of each concentration at each test compound using a concentration-dependent test analyzing software XL fit (manufactured by idbs). The results are shown in Table 5 in Example 10 together with results of Example 9."}, "Aphis gossypii": {"tested_on": "Aphis gossypii", "assay": "Pesticidal activity test (artificial feed rearing of Aphis gossypii)", "format": "in vivo", "conditions": "50 ppm test compound in artificial feed; surviving Aphis gossypii counted after six days; significant controlling value (e.g. 30% or more) = pesticidal activity"}, "[2]": {"conditions": "concentrations 0.03-100 μM, XLfit, recombinant cotton aphid enzyme, read-out: Activity of inhibiting choline acetyltransferase activity (IC50)"}, "[3]": {"conditions": "recombinant cotton aphid enzyme"}}, "note": "Like-named read-outs stand apart in the source and are kept apart here.", "data": [{"smiles": "CN(C)CCC(c1ccc(Cl)cc1)c1ccccn1.O=C(O)/C=C\\C(=O)O", "note": "(racemic) [DL-Chlorpheniramine Maleate]", "values": [{"measurement": "IC50", "setting": "[1]; [2]", "value": "> 100", "unit": "µM"}]}, {"smiles": "COc1cc(N)c(Cl)cc1C(=O)NC1CCN(CCCOc2ccc(F)cc2)CC1OC", "note": "(stereo not drawn) [Cisapride]", "values": [{"measurement": "IC50", "setting": "[1]; [2]", "value": "> 100", "unit": "µM"}]}, {"smiles": "ICC1CSc2nncn21", "note": "(stereo not drawn) [DD03493]", "values": [{"measurement": "IC50", "setting": "[1]; [2]", "value": 23.8, "unit": "µM"}, {"measurement": "inhibition at 10 µM", "setting": "[1]; [3]", "value": 49, "unit": "%"}, {"measurement": "Result of Example 9: Determination result of pesticidal activity", "setting": "Aphis gossypii", "value": "Presence of pesticidal"}]}, {"smiles": "O/N=C(\\CBr)c1ccccc1", "note": "[DD05314]", "values": [{"measurement": "inhibition at 10 µM", "setting": "[1]; [3]", "value": 50, "unit": "%"}, {"measurement": "Result of Example 9: Determination result of pesticidal activity", "setting": "Aphis gossypii", "value": "Presence of pesticidal"}]}, {"smiles": "CN(C)CCC(=O)c1cccc2ccccc12.Cl", "note": "[α-NEDA, 2-(α-naphthoyl)ethyl-dimethylammonium chloride]", "values": [{"measurement": "IC50", "setting": "[1]", "value": 33.5, "unit": "µM"}]}, {"smiles": "C[N+](C)(C)CCC(=O)c1cccc2ccccc12.[I-]", "note": "[α-NETA, 2-(α-naphthoyl)ethyl-trimethylammonium iodide]", "values": [{"measurement": "IC50", "setting": "[1]", "value": 1.5, "unit": "µM"}]}]}
